Laboratory results published in BindingDB's records for PubMed 38266553 (China Pharmaceutical University).

Columns and labels:
[1] = molecular target: Prostaglandin G/H synthase 2 (Homo sapiens) (UniProt P35354); assay: Inhibition of COX-2 (unknown origin) using arachidonic acid as substrate preincubated for 10 mins followed by substrate addition and measured after 5 mins by fluorescence based analysis
[2] = molecular target: Prostaglandin G/H synthase 1 (Homo sapiens) (UniProt P23219); assay: Inhibition of COX-1 (unknown origin) using arachidonic acid as substrate preincubated for 10 mins followed by substrate addition and measured after 5 mins by fluorescence based analysis

Sequence of Prostaglandin G/H synthase 2 (Homo sapiens) (P35354 whole entry, looked up): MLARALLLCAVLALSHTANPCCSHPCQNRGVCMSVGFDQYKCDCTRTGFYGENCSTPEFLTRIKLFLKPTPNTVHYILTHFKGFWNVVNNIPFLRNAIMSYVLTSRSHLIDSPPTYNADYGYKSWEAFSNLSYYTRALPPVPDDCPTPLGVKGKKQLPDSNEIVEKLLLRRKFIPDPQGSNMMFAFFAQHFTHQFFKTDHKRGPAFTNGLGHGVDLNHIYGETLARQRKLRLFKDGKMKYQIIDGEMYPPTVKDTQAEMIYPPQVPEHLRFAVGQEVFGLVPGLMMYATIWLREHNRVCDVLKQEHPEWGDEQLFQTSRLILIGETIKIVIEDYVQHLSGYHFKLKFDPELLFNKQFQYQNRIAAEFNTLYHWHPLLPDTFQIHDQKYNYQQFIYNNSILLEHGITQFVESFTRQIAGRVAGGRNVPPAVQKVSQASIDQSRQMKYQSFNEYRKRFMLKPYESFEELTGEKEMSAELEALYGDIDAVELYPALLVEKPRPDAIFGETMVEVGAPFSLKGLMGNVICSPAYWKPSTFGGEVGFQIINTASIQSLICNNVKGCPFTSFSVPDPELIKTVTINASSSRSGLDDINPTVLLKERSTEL

IC50 [1] | IC50 [2] | SMILES
134 nM | 321 nM | CCc1nn(-c2ccccc2)c(O)c1Cc1ccc(C(=O)NO)cc1
144 nM | 1290 nM | CC(C)(C)c1nn(-c2ccccc2)c(O)c1Cc1ccc(C(=O)NO)cc1
75 nM | 5730 nM | Cc1[nH]n(-c2ccccc2)c(=O)c1Cc1ccc(C(=O)NO)cc1
58 nM | 1360 nM | Cc1nn(-c2cccc(Cl)c2)c(O)c1Cc1ccc(C(=O)NO)cc1
